From patent publication US20180333491A1 (Sinotau Pharmaceuticals Group, priority 2015, published 2018) come the findings set out here.

In this data set the test system is human pancreatic cancer tumor cells MIA-PaCa-2. As to the kind of experiment: MIA-PaCa-2 subcutaneous model.

Experimental: Tumor cells (i.e., MIA-PaCa-2, WiDr, H2122, colo205) were inoculated in nude mice's flank at 5×10^6 cells per mouse. The mice were grouped when the average volume of tumors reached about 100˜200 mm^3. “QW”=weekly dose. “Q3d”=dosed every third day. “BiW”=biweekly.
The bodyweight and major/minor axis of the mice were measured twice a week, and the tumor volumes were calculated using the formula: Tumor volume=1/2×major axis×minor axis. […] “T” represents average tumor volume of the experimental group (cm^3), and “C” represents average tumor volume of the control group (cm^3). The animals were monitored at all times. The bodyweight and major/minor axis or mice were measured twice a week. When the experiments were concluded, mice were sacrificed and tumors were extracted and weighted.
Tumor volumes were represented with average ±standard error. Data analysis was done using Spss16.0, One-Way ANOVA, LSD (homogeneity of variance) or Dunnett T3 (non-homogeneity of variance). […] P<0.05 represents significant difference.

As for `Nc1ccn([C@@H]2O[C@H](CO)[C@@H](O)C2(F)F)c(=O)n1` [Gemcitabine, reference compound], the “Tumor Volume (cm^3) Mean ± SEM” value (Gemcitabine 60 mg/kg i.p., 34 days of treatment) is reported as 1.60 ± 0.11 cm^3. Moreover, for the setting “MIA-PaCa-2 model, over the treatment time”, the bodyweights result was “decreased significantly by the third dosing”. Further, the tumor regression result was “not found” (first experiment) and “not found” (repeated experiment).
